# Measured values published in ChEMBL document CHEMBL1201862, “PubChem BioAssay data set” (2004).
# Activity calls are given as the source filed them.
# Legend:
# [1] = intracellular Trypanosoma cruzi inhibitors in host cells – cell-based, plate reader, cherry-pick samples, set 3, dose response (AID 651818); assay type: functional;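 also: compounds incubated with infected cells for about four days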
# HEK293 [2] = assay: optical interference in Abeta FP readout, dose response, artefact control for IDE activator project, biochemical, fluorescence polarization (AID 588442); assay type: functional, cell-based; details: Homo sapiens
# Insulin-degrading enzyme [3] = molecular target: T1, Insulin-degrading enzyme (Homo sapiens, UniProt P14735); assay: recombinant IDE activation, cell-free – biochemical, fluorescence polarization, counter-screen for IDE activator project, dose response (AID 588681)
# T1 sequence (P14735 whole entry): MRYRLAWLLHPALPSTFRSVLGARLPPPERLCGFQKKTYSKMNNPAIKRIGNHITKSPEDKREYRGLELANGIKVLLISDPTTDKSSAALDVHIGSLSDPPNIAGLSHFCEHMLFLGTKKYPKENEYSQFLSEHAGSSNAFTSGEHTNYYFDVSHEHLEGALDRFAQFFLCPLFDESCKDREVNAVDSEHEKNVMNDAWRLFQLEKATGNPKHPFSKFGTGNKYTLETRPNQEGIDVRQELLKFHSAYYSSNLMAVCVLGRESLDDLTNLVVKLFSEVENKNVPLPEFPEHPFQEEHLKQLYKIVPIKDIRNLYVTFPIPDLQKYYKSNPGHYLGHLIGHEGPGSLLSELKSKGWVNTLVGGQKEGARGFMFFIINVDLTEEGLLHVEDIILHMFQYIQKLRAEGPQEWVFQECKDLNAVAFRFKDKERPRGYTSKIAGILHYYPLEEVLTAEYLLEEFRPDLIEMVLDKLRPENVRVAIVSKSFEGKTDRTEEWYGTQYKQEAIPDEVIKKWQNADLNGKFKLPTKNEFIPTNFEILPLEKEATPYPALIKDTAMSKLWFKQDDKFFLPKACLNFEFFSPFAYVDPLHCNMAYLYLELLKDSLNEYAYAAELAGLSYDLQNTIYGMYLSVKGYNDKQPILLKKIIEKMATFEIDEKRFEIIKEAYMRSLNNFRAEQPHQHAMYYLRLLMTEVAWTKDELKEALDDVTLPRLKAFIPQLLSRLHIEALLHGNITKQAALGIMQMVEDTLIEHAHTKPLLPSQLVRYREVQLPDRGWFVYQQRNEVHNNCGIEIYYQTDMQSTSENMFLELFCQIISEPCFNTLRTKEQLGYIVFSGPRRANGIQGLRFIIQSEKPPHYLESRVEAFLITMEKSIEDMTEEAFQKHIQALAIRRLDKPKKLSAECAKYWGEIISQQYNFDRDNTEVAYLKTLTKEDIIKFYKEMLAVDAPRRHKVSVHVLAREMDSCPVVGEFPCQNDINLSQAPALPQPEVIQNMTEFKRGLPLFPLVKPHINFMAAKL
# HEK293 [4] = assay: membrane integrity loss in HEK cells – cell-based, fluorescence, cytotoxicity control for IDE activator project, dose response (AID 588440); assay type: functional; details: Homo sapiens;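 also: cytotoxicity by LDH release measuring loss of membrane integrity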
# Insulin-degrading enzyme [5] = molecular target: T1, Insulin-degrading enzyme; assay: cellular IDE activation of Abeta substrate cleavage – fluorescence polarization, HEK cells, dose response (AID 588439); assay type: functional, cell-based
SMILES,AC50 [1],EC50 (HEK293 [2]),EC50 (Insulin-degrading enzyme [3]),IC50 (HEK293 [4]),EC50 (Insulin-degrading enzyme [5])
C[C@@H]1CN([C@H](C)CO)C(=O)c2cccc(NC(=O)c3nc4ccccc4s3)c2O[C@H]1CN(C)S(=O)(=O)c1ccc(Cl)cc1,0.964 µM (active),–,–,–,–
C[C@H](CO)N1C[C@H](C)[C@H](CN(C)S(=O)(=O)c2ccc(F)cc2)Oc2ccc(NS(=O)(=O)c3ccc(F)cc3)cc2C1=O,7.7 µM (active),–,–,–,–
CC(=O)Nc1ccc(S(=O)(=O)NCCc2ccccn2)cc1,–,> 56 µM (inactive),> 54.7 µM (inactive),> 89.2 µM (inactive),> 54.7 µM (inactive)
